# According to US12215085B2 (priority 2019, dated 2025):
# What was measured:
# [1] = test system: normal anesthetized dogs; assay: General pharmacological indexes of normal anesthetized dog; assay type: in vivo; conditions: 0.8, 1.6 and 3.2 mg/kg
# From the text: Meanwhile, the influence of Crystal Form A of octahydroaminoacridine succinate on the general pharmacological indexes of the normal anesthetized dog was observed.
# [2] = test system: rats with beta-amyloid induced senile dementia; assay: Step-down test, beta-amyloid induced senile dementia rats; assay type: in vivo, rat; conditions: 2.8 mg/kg, P<0.05
smiles,measurement,setting,value
"Nc1c2c(nc3c1CCCC3)CCCC2.O=C(O)CCC(=O)O [Crystal Form A, 9-amino-1,2,3,4,5,6,7,8-octahydroacridine succinate]","respiratory frequency, respiratory amplitude, arterial blood pressure, heart rate and electrocardiogram",[1],no obvious influence
same,step-down error number vs model group,[2]; Day 1 and Day 2,obviously reduced
same,error latency vs model group,[2]; Day 2,obviously prolonged
